{"source": "PubChem BioAssay AID2060903", "about": "(Molecular Pharmacology Branch, DTP, NCI, 2025);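 further: spheroids exposed to compounds for seven days before readout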", "test_system": "377384-186-R-J1-PDC complex spheroid viability", "experiment": "Anticancer human tumor 377384-186-R-J1-PDC patient-derived pancreatic carcinoma cell line growth inhibition [RAS]", "details": "for IC50: curve of first compound; for viability, T/C: stronger effect = lower value", "procedure,_shortened": "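Agents were tested in combination matrices in half-log decrements from a top concentration at or near clinical Cmax (10 microM if undetermined). Targets were multi-cell spheroids of tumour lines plus HUVEC and MSC stromal cells.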"}
{"smiles": "CC(C)NCC(C(=O)N1CCN(c2ncnc3c2C(C)CC3O)CC1)c1ccc(Cl)cc1", "note": "(configuration not stated) + C#Cc1c(F)ccc2cc(O)cc(-c3ncc4c(N5CC6CCC(C5)N6)nc(OCC56CCCN5CC(F)C6)nc4c3F)c12", "values": [{"measurement": "IC50", "setting": "second compound 0.0316 µM", "value": "< 31.6", "unit": "nM"}, {"measurement": "IC50", "setting": "second compound 0.1 µM", "value": "< 31.6", "unit": "nM"}, {"measurement": "IC50", "setting": "second compound 0.316 µM", "value": "< 31.6", "unit": "nM"}, {"measurement": "IC50", "setting": "second compound 1 µM", "value": "< 31.6", "unit": "nM"}, {"measurement": "IC50", "setting": "second compound 3.16 µM", "value": "< 31.6", "unit": "nM"}, {"measurement": "IC50", "setting": "second compound 10 µM", "value": "< 31.6", "unit": "nM"}, {"measurement": "viability, T/C", "setting": "second compound 0.0316 µM, first compound 0.0316 µM", "value": 22.6, "unit": "%"}, {"measurement": "viability, T/C", "setting": "second compound 0.0316 µM, first compound 0.1 µM", "value": 18.8, "unit": "%"}, {"measurement": "viability, T/C", "setting": "second compound 0.0316 µM, first compound 0.316 µM", "value": 18.2, "unit": "%"}, {"measurement": "viability, T/C", "setting": "second compound 0.0316 µM, first compound 1 µM", "value": 16.9, "unit": "%"}, {"measurement": "viability, T/C", "setting": "second compound 0.0316 µM, first compound 3.16 µM", "value": 11, "unit": "%"}, {"measurement": "viability, T/C", "setting": "second compound 0.0316 µM, first compound 10 µM", "value": 9.91, "unit": "%"}, {"measurement": "viability, T/C", "setting": "second compound 0.1 µM, first compound 0.0316 µM", "value": 10.2, "unit": "%"}, {"measurement": "viability, T/C", "setting": "second compound 0.1 µM, first compound 0.1 µM", "value": 10.5, "unit": "%"}, {"measurement": "viability, T/C", "setting": "second compound 0.1 µM, first compound 0.316 µM", "value": 8.54, "unit": "%"}, {"measurement": "viability, T/C", "setting": "second compound 0.1 µM, first compound 1 µM", "value": 9.68, "unit": "%"}, {"measurement": "viability, T/C", "setting": "second compound 0.1 µM, first compound 3.16 µM", "value": 6.47, "unit": "%"}, {"measurement": "viability, T/C", "setting": "second compound 0.1 µM, first compound 10 µM", "value": 3.99, "unit": "%"}, {"measurement": "viability, T/C", "setting": "second compound 0.316 µM, first compound 0.0316 µM", "value": 4.76, "unit": "%"}, {"measurement": "viability, T/C", "setting": "second compound 0.316 µM, first compound 0.1 µM", "value": 4.25, "unit": "%"}, {"measurement": "viability, T/C", "setting": "second compound 0.316 µM, first compound 0.316 µM", "value": 5.02, "unit": "%"}, {"measurement": "viability, T/C", "setting": "second compound 0.316 µM, first compound 1 µM", "value": 3.37, "unit": "%"}, {"measurement": "viability, T/C", "setting": "second compound 0.316 µM, first compound 3.16 µM", "value": 3.87, "unit": "%"}, {"measurement": "viability, T/C", "setting": "second compound 0.316 µM, first compound 10 µM", "value": 3.34, "unit": "%"}, {"measurement": "viability, T/C", "setting": "second compound 1 µM, first compound 0.0316 µM", "value": 3.41, "unit": "%"}, {"measurement": "viability, T/C", "setting": "second compound 1 µM, first compound 0.1 µM", "value": 17.1, "unit": "%"}, {"measurement": "viability, T/C", "setting": "second compound 1 µM, first compound 0.316 µM", "value": 2.83, "unit": "%"}, {"measurement": "viability, T/C", "setting": "second compound 1 µM, first compound 1 µM", "value": 2.26, "unit": "%"}, {"measurement": "viability, T/C", "setting": "second compound 1 µM, first compound 3.16 µM", "value": 1.72, "unit": "%"}, {"measurement": "viability, T/C", "setting": "second compound 1 µM, first compound 10 µM", "value": 1.05, "unit": "%"}, {"measurement": "viability, T/C", "setting": "second compound 3.16 µM, first compound 0.0316 µM", "value": 2.28, "unit": "%"}, {"measurement": "viability, T/C", "setting": "second compound 3.16 µM, first compound 0.1 µM", "value": 2.34, "unit": "%"}, {"measurement": "viability, T/C", "setting": "second compound 3.16 µM, first compound 0.316 µM", "value": 1.81, "unit": "%"}, {"measurement": "viability, T/C", "setting": "second compound 3.16 µM, first compound 1 µM", "value": 1.19, "unit": "%"}, {"measurement": "viability, T/C", "setting": "second compound 3.16 µM, first compound 3.16 µM", "value": 1.15, "unit": "%"}, {"measurement": "viability, T/C", "setting": "second compound 3.16 µM, first compound 10 µM", "value": 0.64, "unit": "%"}, {"measurement": "viability, T/C", "setting": "second compound 10 µM, first compound 0.0316 µM", "value": 1.35, "unit": "%"}, {"measurement": "viability, T/C", "setting": "second compound 10 µM, first compound 0.1 µM", "value": 1.29, "unit": "%"}, {"measurement": "viability, T/C", "setting": "second compound 10 µM, first compound 0.316 µM", "value": 0.78, "unit": "%"}, {"measurement": "viability, T/C", "setting": "second compound 10 µM, first compound 1 µM", "value": 0.79, "unit": "%"}, {"measurement": "viability, T/C", "setting": "second compound 10 µM, first compound 3.16 µM", "value": 0.61, "unit": "%"}, {"measurement": "viability, T/C", "setting": "second compound 10 µM, first compound 10 µM", "value": 0.18, "unit": "%"}]}
